For orientation: IC50 means the concentration that inhibits the measured activity by half.

One assay concerns the target T1, human orexin-2 receptor (Homo sapiens, UniProt O43614).
T1 construct: expressed in transfected cells; host or cells: CHO cells (G418 selection)
T1 sequence (O43614 1-444): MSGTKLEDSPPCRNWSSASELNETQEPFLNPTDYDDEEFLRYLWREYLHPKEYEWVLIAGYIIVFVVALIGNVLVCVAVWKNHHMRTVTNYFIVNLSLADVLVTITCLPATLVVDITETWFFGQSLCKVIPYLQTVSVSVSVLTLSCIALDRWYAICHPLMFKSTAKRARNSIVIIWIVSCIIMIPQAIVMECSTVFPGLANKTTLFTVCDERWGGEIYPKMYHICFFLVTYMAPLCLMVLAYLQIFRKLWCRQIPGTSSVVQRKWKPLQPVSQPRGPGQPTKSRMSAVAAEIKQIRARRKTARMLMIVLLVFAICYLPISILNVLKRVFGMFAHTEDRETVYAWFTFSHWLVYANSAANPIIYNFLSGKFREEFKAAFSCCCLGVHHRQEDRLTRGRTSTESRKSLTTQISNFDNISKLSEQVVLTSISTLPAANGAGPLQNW
In words: FLIPR intracellular calcium assay, orexin receptor antagonistic activity (OX2). The following applies: CHO cells expressing human orexin-2 receptor; agonist 3 nM orexin-A; normalized to on-plate reference; * geomean n = 5, *2 geomean n = 2. The format is cell-based. The procedure:
(§1) The orexin receptor antagonistic activity of the compounds of formula (I) is determined in accordance with the following experimental method.
(§2) Chinese hamster ovary (CHO) cells expressing the human orexin-1 receptor and the human orexin-2 receptor, respectively, are grown in culture medium (Ham F-12 with L-Glutamine) containing 300 μg/ml G418, 100 U/ml penicillin, 100 μg/ml streptomycin and 10% heat inactivated fetal calf serum (FCS). The cells are seeded at 20′000 cells/well into 384-well black clear bottom sterile plates (Greiner). The seeded plates are incubated overnight at 37° C. in 5% CO2.
(§3) Human orexin-A as an agonist is prepared as 1 mM stock solution in MeOH:water (1:1), diluted in HBSS containing 0.1% bovine serum albumin (BSA), NaHCO3: 0.375 g/l and 20 mM HEPES for use in the assay at a final concentration of 3 nM.
(§4) Antagonists are prepared as 10 mM stock solution in DMSO, then diluted in 384-well plates using DMSO followed by a transfer of the dilutions into in HBSS containing 0.1% bovine serum albumin (BSA), NaHCO3: 0.375 g/l and 20 mM HEPES. On the day of the assay, 50 μl of staining buffer (HBSS containing 1% FCS, 20 mM HEPES, NaHCO3: 0.375 g/l, 5 mM probenecid (Sigma) and 3 μM of the fluorescent calcium indicator fluo-4 AM (1 mM stock solution in DMSO, containing 10% pluronic) is added to each well. The 384-well cell-plates are incubated for 50 min at 37° C. in 5% CO2 followed by equilibration at rt for 30-120 min before measurement.
(§5) Within the Fluorescent Imaging Plate Reader (FLIPR Tetra, Molecular Devices), antagonists are added to the plate in a volume of 10 μl/well, incubated for 10 min and finally 10 μl/well of agonist is added. Fluorescence is measured for each well at 1 second intervals, and the height of each fluorescence peak is compared to the height of the fluorescence peak induced by 3 nM orexin-A with vehicle in place of antagonist. For each antagonist, the IC50 value (the concentration of compound needed to inhibit 50% of the agonistic response) is determined and normalized using the obtained IC50 value of a on-plate reference compound. Optimized conditions were achieved by adjustment of pipetting speed and cell splitting regime. The calculated IC50 values of the compounds may fluctuate depending on the daily cellular assay performance. Fluctuations of this kind are known to those skilled in the art.
Background: Calcium flux is commonly read through the fluorescence of an indicator in the cells.

In a further assay the target is T2, human orexin-1 receptor (Homo sapiens, UniProt O43613).
T2 construct: expressed in transfected cells; host or cells: CHO cells (G418 selection)
T2 sequence (O43613 1-425): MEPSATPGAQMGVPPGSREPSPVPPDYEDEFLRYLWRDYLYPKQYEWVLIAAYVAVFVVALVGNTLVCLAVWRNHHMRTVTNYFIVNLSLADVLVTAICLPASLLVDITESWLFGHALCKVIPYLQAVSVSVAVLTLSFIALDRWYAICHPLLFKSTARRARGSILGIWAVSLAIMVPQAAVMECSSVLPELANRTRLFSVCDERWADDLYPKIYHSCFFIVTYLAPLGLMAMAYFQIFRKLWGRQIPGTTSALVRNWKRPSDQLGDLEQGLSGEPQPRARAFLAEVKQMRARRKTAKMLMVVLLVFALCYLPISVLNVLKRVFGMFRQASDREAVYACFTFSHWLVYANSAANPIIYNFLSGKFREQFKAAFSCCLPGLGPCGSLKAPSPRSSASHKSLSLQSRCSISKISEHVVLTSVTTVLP
In words: FLIPR intracellular calcium assay, orexin receptor antagonistic activity (OX1). The format is cell-based. The following applies: CHO cells expressing human orexin-1 receptor; agonist 3 nM orexin-A; normalized to on-plate reference; * geomean n = 5, *2 geomean n = 2. The procedure:
as §1, §2, §3, §4, §5

Take “3-(3-Chloro-4-methyl-benzyl)-2-(2,6-dimethoxy-phenyl)-oxazolidin-4-one [Example 43]”: the IC50 at human orexin-2 receptor came to 349 nM; on human orexin-1 receptor it was 553 nM.

In the case of `CCOc1ccccc1C1OCC(=O)N1Cc1ccc(Cl)c(C(F)(F)F)c1` (stereo not drawn) [Example 1, 3-(4-Chloro-3-trifluoromethyl-benzyl)-2-(2-ethoxy-phenyl)-oxazolidin-4-one], the IC50 on human orexin-2 receptor amounted to 263 nM; on human orexin-1 receptor, 6490 nM.

For the molecule `CCOc1ccccc1C1OCC(=O)N1Cc1ccccc1C` (stereo not drawn) [Example 2, 2-(2-Ethoxy-phenyl)-3-(2-methyl-benzyl)-oxazolidin-4-one], the results for the IC50 on human orexin-2 receptor and on human orexin-1 receptor were 223 nM and over 10000 nM, respectively.

Take `CCOc1ccccc1C1OCC(=O)N1Cc1ccc(C(F)(F)F)cc1` (stereo not drawn) [Example 3, 2-(2-Ethoxy-phenyl)-3-(4-trifluoromethyl-benzyl)-oxazolidin-4-one]: the IC50 on human orexin-2 receptor is 230 nM; on human orexin-1 receptor, 9990 nM.

`CCOc1ccccc1C1OCC(=O)N1Cc1cccc(OC)c1` (stereo not drawn) [Example 4, 2-(2-Ethoxy-phenyl)-3-(3-methoxy-benzyl)-oxazolidin-4-one]: the figures for the IC50 on human orexin-2 receptor and on human orexin-1 receptor were 705 nM and over 10000 nM, respectively.

In the case of `CCOc1ccccc1C1OCC(=O)N1Cc1cccc(C(F)(F)F)c1` (stereo not drawn) [Example 5, 2-(2-Ethoxy-phenyl)-3-(3-trifluoromethyl-benzyl)-oxazolidin-4-one], the IC50 at human orexin-2 receptor is 462 nM; on human orexin-1 receptor it was over 10000 nM.

On to `CCOc1ccccc1C1OCC(=O)N1Cc1ccc(OC(F)(F)F)cc1` (stereo not drawn) [Example 6, 2-(2-Ethoxy-phenyl)-3-(4-trifluoromethoxy-benzyl)-oxazolidin-4-one], for which the values for the IC50 on human orexin-2 receptor and at human orexin-1 receptor were 55 nM and over 10000 nM, respectively.

With `CCOc1ccccc1C1OCC(=O)N1Cc1cccc(OC(F)(F)F)c1` (stereo not drawn) [Example 7, 2-(2-Ethoxy-phenyl)-3-(3-trifluoromethoxy-benzyl)-oxazolidin-4-one], the IC50 at human orexin-2 receptor worked out at 74 nM; at human orexin-1 receptor, 6810 nM.

In the case of `CCOc1ccccc1C1OCC(=O)N1Cc1ccc(F)c(C)c1` (stereo not drawn) [Example 8, 2-(2-Ethoxy-phenyl)-3-(4-fluoro-3-methyl-benzyl)-oxazolidin-4-one], the values for the half-maximal inhibitory concentration (IC50) at human orexin-2 receptor and on human orexin-1 receptor were 584 nM and 9170 nM, respectively.

In the case of `CCOc1ccccc1C1OCC(=O)N1Cc1ccc(F)c(Cl)c1` (stereo not drawn) [Example 9, 3-(3-Chloro-4-fluoro-benzyl)-2-(2-ethoxy-phenyl)-oxazolidin-4-one], the concentration for half-maximal inhibition (IC50) at human orexin-2 receptor stood at 79 nM; on human orexin-1 receptor, 8740 nM.

For `CCOc1ccccc1C1OCC(=O)N1Cc1cc(C(F)(F)F)cc(Cl)c1F` (stereo not drawn) [Example 10, 3-(3-Chloro-2-fluoro-5-trifluoromethyl-benzyl)-2-(2-ethoxy-phenyl)-oxazolidin-4-one], the IC50 at human orexin-2 receptor was 693 nM; at human orexin-1 receptor it was 8410 nM.

Turning to `CCOc1ccccc1C1OCC(=O)N1Cc1cccc(C(F)(F)F)c1C` (stereo not drawn) [Example 11, 2-(2-Ethoxy-phenyl)-3-(2-methyl-3-trifluoromethyl-benzyl)-oxazolidin-4-one], the IC50 on human orexin-2 receptor was 385 nM; at human orexin-1 receptor it was 5410 nM.

Turning to `CCOc1ccccc1C1OCC(=O)N1Cc1cc(C(F)(F)F)ccc1Cl` (stereo not drawn) [Example 12, 3-(2-Chloro-5-trifluoromethyl-benzyl)-2-(2-ethoxy-phenyl)-oxazolidin-4-one], the IC50 on human orexin-2 receptor is 590 nM; on human orexin-1 receptor it was 4040 nM.

With `CCOc1ccccc1C1OCC(=O)N1Cc1cc(C(F)(F)F)ccc1F` (stereo not drawn) [Example 13, 2-(2-Ethoxy-phenyl)-3-(2-fluoro-5-trifluoromethyl-benzyl)-oxazolidin-4-one], the IC50 at human orexin-2 receptor is 290 nM; at human orexin-1 receptor it was over 10000 nM.

With `CCOc1ccccc1C1OCC(=O)N1Cc1ccc(F)c(C(F)(F)F)c1` (stereo not drawn) [Example 14, 2-(2-Ethoxy-phenyl)-3-(4-fluoro-3-trifluoromethyl-benzyl)-oxazolidin-4-one], the values for the IC50 at human orexin-2 receptor and at human orexin-1 receptor were 169 nM and over 10000 nM, respectively.

The values are drawn from patent publication US8329706B2, “Oxazolidinone derivatives” (Actelion Pharmaceuticals Ltd., priority 2009, dated 2012).
